Reference: ChEMBL document CHEMBL1144826, “Selective vasodilatation effect of sargahydroquinoic acid, an active constituent of Sargassum micracanthum, on the basilar arteries of rabbits” (Bioorg Med Chem Lett, 2008)

Key:
[1] = Selectivity index, ratio of EC50 for vasodialative effect on high K+-induced vasoconstriction in rabbit carotid artery to basilar artery; format: functional, Oryctolagus cuniculus
[2] = Vasodialative effect on high K+-induced vasoconstriction in rabbit carotid artery; format: functional, Oryctolagus cuniculus
[3] = Vasodialative effect on high K+-induced vasoconstriction in rabbit basilar artery; format: functional, tissue-based, Oryctolagus cuniculus

Compound: CC(C)=CCC/C(=C/CC/C(C)=C/CC/C(C)=C/Cc1cc(O)cc(C)c1O)C(=O)O [SARGAHYDROQUINOIC ACID]
- Ratio EC50 [1]: 11.9
- EC50 [2]: 140 µM
- EC50 [3]: 11.8 µM
